Data on 4 compounds can be found in patent publication US20130225669A1 (priority 2012, published 2013).

“And” between values parts separate entries of the source, which are not always exact repeats. Equal values may be shown once. “Also recorded” adds a separate entry of the source. Read-outs that look alike come from different tables or passages of the source.

The test system of series [1] is Chinese hamster ovary (CHO-K1) cells. The note with it: in vitro; cited from earlier work.
For series [2], the system named is Bacillus subtilis var. niger spores. In kind it is cell-based.
For a further series, the system named is 3T3 fibroblasts. The note with it: in vitro; cited from earlier work.
Series [3] relates to Bacillus subtilis var. niger spores. Type of series: cell-based. The note with it: for colonies at the 1-log reduction level: 72 hours, room temperature. As to the method:
B. subtilis mini spores strips with 1.2×10^6 spores were treated with 0.5 mL of sterile PBS; 1:1 DMSO:PBS without genipin; 0.63%, 2%, 6%, and 10% genipin in 1:1 DMSO:PBS; and 10% formalin for 72 hours at room temperature (N=4 per group). Spore strips were then washed with sterile water and then aseptically macerated, serially diluted, and plated onto petri dishes with soybean-casein digest agar (Mo Bio Laboratories, Carlsbad, Calif.). Spores were incubated for 48 hours at 32.5° C. after which time colony counts were performed.

Series [4] has as its system fibroblasts. The conditions noted are these: cited from earlier work.
Series [5] relates to bovine nucleus pulposus cells. The conditions noted are these: cells entrapped in chitosan gels crosslinked with 5% genipin; cited from earlier work.
In another series the test system is cells in culture. The note with it: 2200 μMolar sterile genipin; cited from earlier work.
The subject of a further series is osteoblasts. The note with it: cells directly exposed to genipin solution; cited from earlier work.
Series [6] relates to fibroblasts. The note with it: cells directly exposed to genipin solution; cited from earlier work.
Series [7] deals with Bacillus subtilis var. niger spores. Type of series: cell-based. The conditions noted are these: for spore strips sterilized: room temperature (Example 6). The method, then: The sterilization potential of genipin was measured by treating B. subtilis mini spore strips with 1.2×10^6 bacterial spores (ATCC 9372, North American Science Associates, Inc., Northwood, Ohio) with 0.5 mL of sterile 1:1 dimethyl sulfoxide (Avantor Performance Materials, Inc., Center Valley, Pa.): phosphate-buffered saline (Fisher Scientific, Pittsburgh, Pa.) (DMSO: PBS, v/v); 2%, 6%, and 10% genipin in 1:1 DMSO:PBS; and 10% formalin (Fisher Scientific, Pittsburgh, Pa.) (N=4 per group). Genipin treatments corresponded to 8.3 mg, 25 mg, and 42 mg genipin per 10^6 spores for the 2%, 6%, and 10% groups, respectively. Treatment was conducted at room temperature, 20-25° C., for 24 hours and 72 hours. Spore strips were subsequently washed with sterile water and aseptically transferred to Releasat® rapid-readout color changing vials (SGM Biotech, Bozeman, Mont.) which have soybean-casein digest medium with the pH indicator phenol red, designed to change color from orange to yellow in the presence of spore germination and proliferation. Spores were incubated for one week at 37° C.
B. subtilis mini spores strips with 1.2×10^6 spores were treated with 0.5 mL of sterile PBS and 1:1 DMSO:PBS without genipin; 0.03%, 0.32%, and 0.63% genipin in 1:1 DMSO: PBS; 0.63% genipin in PBS; and 10% formalin for 72 hours at room temperature (N=4 per group). Genipin treatments corresponded to 0.13 mg, 1.3 mg, and 2.6 mg genipin per 10^6 spores for the 0.03%, 0.32%, and 0.63% groups, respectively. Spore strips were subsequently washed with sterile water, aseptically transferred to Releasat® vials, and incubated for one week at 37° C.
B. subtilis mini spores strips with 1.2×10^6 spores were treated with 0.5 mL of sterile 1:1 DMSO:PBS without genipin; 0.63%, 2%, 6%, and 10% genipin in 1:1 DMSO:PBS; and 10% formalin for 72 hours at room temperature (N=4 per group). Spore strips were subsequently washed with sterile water, aseptically transferred to Releasat® vials, and incubated for one week at 37° C.
A priori power analysis was performed with G*Power (G*Power 3.1.3, Kiel, Germany). To detect at least a one-log difference in population assays, comparing groups at an α=0.05 and power >0.999 required N=3 per group. One-tailed Mann-Whitney U tests were performed for comparing population assay groups. Chi squared tests and binomial exact confidence intervals were performed comparing spore viability against expected spore counts for dichotomous (sterile, non-sterile) growth in medium based on the manufacturer's certificate of analysis (COA), and the population assays (PA, for B. subtilis only), using Minitab 16 (Minitab, Inc., State College, Pa.). Statistical significance was set at p≦0.05.

A further series concerns B. pumilus spores. Description: Spore strip sterilization, soybean-casein medium. In kind it is cell-based. The note with it: 72 hours. The method, then:
(§1) Spore strips of B. pumilus (ATCC 27142) with 1.9×10^6 spores (SGM Biotech, Bozeman, Mont.) and G. stearothermophilus (ATCC 7953) with 1.9×10^6 spores (SGM Biotech, Bozeman, Mont.) were treated with doses of genipin equivalent to those that sterilized of B. subtilis. B. pumilus conventional spore strips were treated with 1.75 mL of solution and G stearothermophilus mini spore strips were treated with 0.5 mL of solution. Spore strips were treated with 1:1 DMSO:PBS; 2.6 mg, 8.3 mg, 25 mg, and […] genipin per 10^6 spores in 1:1 DMSO:PBS; and 10% formalin (N=4). After treatment for 72 hours spore strips were washed and transferred to soybean-casein medium (Becton Dickinson, Franklin Lanes, N.J.). B. pumilus was incubated at 32.5° C. and G stearothermophilus was incubated at 57.5° C.

Series [8] deals with Geobacillus stearothermophilus spores. Nature of the series: Spore strip sterilization, soybean-casein medium. In kind it is cell-based. The method, then: as §1
The conditions of series [9]: cited from earlier work.
The subject of another series is B. subtilis spores. Nature of the series: Scanning electron microscopy of genipin-treated spores. In kind it is cell-based. The conditions noted are these: 10% and 0.63% genipin in 1:1 DMSO:PBS, 72 hours, room temperature. As to the method: The morphology of B. subtilis was evaluated using scanning electron microscopy. Spore strips were either untreated, treated with 0.5 mL of sterile 1:1 DMSO:PBS without genipin, or 0.5 mL of sterile 0.63% or 10% genipin in 1:1 DMSO:PBS for 72 hours at room temperature. After treatment, spore strips were washed with sterile water and dehydrated with increasing concentrations of ethanol (70%, 80%, 90%, and 100%) and subjected to critical point drying. The spore strips were mounted onto a stage, sputter coated with gold, and visualized under a scanning electron microscopy (Hitachi S-4500 Cold Field Emission SEM, Hitachi, Ltd., Tokyo, Japan).

For series [10] the following is noted: cited from earlier work. This is another data set of the same source.
Series [11] has as its system over 40 bacterial (non-spore forms) and fungal species. The conditions noted are these: most 20-40%; cited from earlier work.
[12] abbreviates: 0.03% genipin in 1:1 DMSO:PBS, 72 hours, room temperature.
Where [13] appears, read: 0.32% genipin in 1:1 DMSO:PBS, 72 hours, room temperature.

`COC(=O)C1=CO[C@@H](O)C2C(CO)=CC[C@H]12` (stereo in doubt) [genipin, methyl (1R,2R,6S)-2-hydroxy-9-(hydroxymethyl)-3-oxabicyclo [4.3.0]nona-4,8-diene-5-carboxylate]: the clastogenic response entry in series [1] was “does not cause clastogenic response”. The sterile vials is 2/5 in series [2] (0.63% genipin in 50% DMSO/50% PBS, room temperature (Example 12)) and 5/5 in series [2] (0.63% genipin, all doses of DMSO (0-50%) in PBS, 37° C.). Further, the “log reduction in spore viability” value in series [2] (0.63% genipin in PBS, 37° C.) is at least 6 log; in series [7] (setting [12]), 5- to 6 log and > 5 log; in [7] (setting [13]), 5- to 6 log and > 5 log; in [7] (0.63% genipin, all doses of DMSO (0-50%), 37° C.), at least 6 log; in series [7] (0.63%-10% genipin in 1:1 DMSO:PBS, 72 hours, room temperature (confirmatory experiment)), “at least 6 log”; in the series with B. pumilus spores (2.6 mg-42 mg genipin/10^6 spores in 1:1 DMSO:PBS, room temperature), “at least 6 log”. Moreover, in [8] (2.6 mg-42 mg genipin/10^6 spores in 1:1 DMSO:PBS, 72 hours, room temperature), the “log reduction in spore viability” value is on record as “at least 6 log”. The “cytotoxicity compared with glutaraldehyde” value with 3T3 fibroblasts is “substantially less cytotoxic than glutaraldehyde”. Further, the “colonies at the 1-log reduction level” value is reported as “no colonies” in series [3] (0.63% genipin in 1:1 DMSO:PBS), “no colonies” in series [3] (2% genipin in 1:1 DMSO:PBS), “no colonies” in series [3] (6% genipin in 1:1 DMSO:PBS) and “three 10% genipin-treated spore strips yielded no colonies” in [3] (10% genipin in 1:1 DMSO:PBS). The “log reduction in B. subtilis viability” value in series [3] (0.63% genipin in PBS, one week treatment (unpublished pilot data)) worked out at 2 log. For the same compound, in the series on fibroblasts [4] (bovine pericardia treated with 0.625% genipin in PBS, within three days), the “fibroblast proliferation on treated tissue” value is on record as “substantial fibroblast proliferation”. Moreover, the cell viability entry in series [5] is reported as “up to 87%”. The cell death entry in the series on cells in culture is listed as “complete cell death”. Further, the “concentration sufficient for cytotoxicity” value in the series with osteoblasts and in the series with fibroblasts [6] was 80-100 ppm each time. Also, the spore strips sterile entry in series [7] (setting [12]) is recorded as “two of four”; in series [7] (setting [13]) it was “one of four”; in [7] (0.63% genipin in 1:1 DMSO:PBS, 72 hours, room temperature (Example 7)) it was “Three of four”. In addition, the spore strip viability/sterility entry was “demonstrated viability” in series [7] (0.63% genipin in PBS, 72 hours, room temperature); “sterilized the spore strips” in series [7] (0.63%, 2%, 6%, 10% genipin in 1:1 DMSO:PBS, 72 hours, room temperature (confirmation, Example 8)); “demonstrated bacterial viability; also recorded: unable to sterilize any spore strips; also recorded: yellow (growth)” in series [7] (2%-10% genipin in 1:1 DMSO:PBS, 24 hours, room temperature). In series [7] (1:1 DMSO:PBS, 72 hours, room temperature), the “genipin dose necessary for eradication of B. subtilis” value is given as “at least 2.6 mg/10^6 spores”. Moreover, the spore strips sterilized is recorded as 3 of 4 in [7] (2% genipin in 1:1 DMSO:PBS, 72 hours); 3 of 4 in [7] (6% genipin in 1:1 DMSO:PBS, 72 hours); “all” in series [7] (10% genipin in 1:1 DMSO:PBS, 72 hours); 4/4 in the series on B. pumilus spores (all genipin doses (2.6-42 mg per 10^6 spores) in 1:1 DMSO:PBS); “Three of 4” in series [8] (2.6 mg genipin/10^6 spores in 1:1 DMSO:PBS, 72 hours); 4/4 in series [8] (8.3 mg genipin/10^6 spores in 1:1 DMSO:PBS, 72 hours). Further, the spore strips sterilized entry is “Three of 4” in series [8] (25 mg genipin/10^6 spores in 1:1 DMSO:PBS, 72 hours) and 4/4 in series [8] (42 mg genipin/10^6 spores in 1:1 DMSO:PBS, 72 hours). In addition, the “relative solubility in solvents” value in series [9] (organic solvents versus PBS) is given as “more soluble in ethanol than in PBS; also recorded: substantially more soluble in organic solvents”. In series [9] (phosphate-buffered saline), the “solubility in PBS” value was “approximately 1%”. Further, in the series with B. subtilis spores, the “spore morphology versus untreated spore strips” value is “no appreciable morphological differences”.
For the compound `C[S+](C)[O-]` [DMSO, dimethyl sulfoxide], in series [10] (DMSO washed off or less than 10% DMSO), the toxicity rate is 0.3%. Moreover, the toxicity incidence in series [10] (stem cells cryopreserved with 10% DMSO, review of 34,000 transplants) is listed as 1.5%. Also, in series [11], the microbicidal concentration is on record as 8 to 40%.
On to `C=O` [formalin, reference compound], for which the “colonies at the 1-log reduction level” value in [3] (10% formalin) was “no colonies”. Besides, the spore strip viability/sterility entry was “orange (sterile)” in series [7] (10% formalin, 24 hours, room temperature); “presence of spore viability” in series [8] (10% formalin, 72 hours); “demonstrated viability” in [8] (10% formalin, 72 hours, listed as 10% formalin). In addition, in series [8] (10% formalin, 72 hours), the “spore strips from which G. stearothermophilus grew” value was 100%. The “time required to demonstrate viability” value in series [8] (10% formalin, 72 hours treatment) amounted to 2.25 ± 0.50 days.
In the case of `O=CCCCC=O` [glutaraldehyde, reference compound], the “fibroblast proliferation on treated tissue” value with fibroblasts [4] (0.625% glutaraldehyde-treated pericardia, after seven days) is reported as “no cellular proliferation”.
